In this test the target is human PDE10A (Homo sapiens (Human), UniProt Q9Y233). Kind of test: human PDE10A full length Scintillation Proximity Assay (SPA). Type of test: biochemical. The note with it: 50 nM cGMP and 50 nM [3H]-cGMP, 20 minutes at room temperature; read-out: PDE10A inhibition IC50. As to the method: The following test was carried out in order to determine the activity of the compounds of the present invention.
The human PDE10A full length assay was performed in 96-well micro titer plates. […] Non-specific activity was tested without the enzyme. The reaction was initiated by the addition of the substrate solution (cGMP and [^3H]-cGMP) and allowed to progress for 20 minutes at room temperature. The reaction was terminated by adding 25 μl of YSi-SPA scintillation beads (GE Healthcare, cat. # RPNQ0150) in 18 mM zinc sulphate solution (stop reagent). After 1 h under shaking, the plate was centrifuged one minute at 170 g to allow beads to settle. Afterwards, radioactive counts were measured on a Perkin Elmer TopCount Scintillation plate reader.

Here are results for 29 molecules from patent publication US8703768B2, “Nitrogen containing heteroaryl compounds” (Hoffmann-La Roche Inc., priority 2010, dated 2014).

SMILES strings stand for the structures.

Sequence of human PDE10A (Q9Y233 other isoform, or with tags, fused parts or gaps): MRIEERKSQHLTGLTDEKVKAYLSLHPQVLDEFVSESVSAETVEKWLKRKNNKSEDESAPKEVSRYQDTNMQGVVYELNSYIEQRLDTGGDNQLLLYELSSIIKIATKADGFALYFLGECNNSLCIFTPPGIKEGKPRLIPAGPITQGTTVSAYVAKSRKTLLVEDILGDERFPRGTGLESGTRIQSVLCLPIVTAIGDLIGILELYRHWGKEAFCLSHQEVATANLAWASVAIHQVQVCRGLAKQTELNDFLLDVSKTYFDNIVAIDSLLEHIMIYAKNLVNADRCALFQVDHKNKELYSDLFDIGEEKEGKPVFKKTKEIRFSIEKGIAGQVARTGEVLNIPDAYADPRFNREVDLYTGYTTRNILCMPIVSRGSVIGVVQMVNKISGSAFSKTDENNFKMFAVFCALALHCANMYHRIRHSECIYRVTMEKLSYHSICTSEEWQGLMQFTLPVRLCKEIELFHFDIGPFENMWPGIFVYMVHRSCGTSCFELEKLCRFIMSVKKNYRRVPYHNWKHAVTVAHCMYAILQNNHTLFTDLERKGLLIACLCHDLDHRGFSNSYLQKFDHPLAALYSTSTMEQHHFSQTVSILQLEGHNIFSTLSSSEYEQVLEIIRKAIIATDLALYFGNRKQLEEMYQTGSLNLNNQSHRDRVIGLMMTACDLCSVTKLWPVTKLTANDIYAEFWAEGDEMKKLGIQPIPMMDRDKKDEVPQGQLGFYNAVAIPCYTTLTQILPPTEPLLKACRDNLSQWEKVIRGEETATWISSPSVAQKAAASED

For `CC(C)(O)CNC(=O)c1c(NC(=O)c2nc(C3CC3)cnc2Nc2cncnc2)cnn1CC1CCO1` (centres unmarked) [Example 283, 6-Cyclopropyl-3-(pyrimidin-5-ylamino)-pyrazine-2-carboxylic acid [5-(2-hydroxy-2-methyl-propylcarbamoyl)-1-oxetan-2-ylmethyl-1H-pyrazol-4-yl]-amide], the IC50 (in general, the concentration that gives 50% inhibition) came to 1.1 nM.

As to `CNC(=O)c1c(NC(=O)c2nc(C(C)(C)O)ncc2Nc2cncnc2)cnn1C` [Example 340, 2-(1-Hydroxy-1-methyl-ethyl)-5-(pyrimidin-5-ylamino)-pyrimidine-4-carboxylic acid (1-methyl-5-methylcarbamoyl-1H-pyrazol-4-yl)-amide], the IC50 was 250 nM.

For `O=C(Nc1cccc(F)c1C(=O)N1CCC1)c1nc(C2CC2)cnc1Nc1cncnc1` [Example 309, 6-Cyclopropyl-3-(pyrimidin-5-ylamino)-pyrazine-2-carboxylic acid [2-(azetidine-1-carbonyl)-3-fluoro-phenyl]-amide], the IC50 worked out at 1.1 nM. As to `COCCn1ncc(NC(=O)c2nc(C3CC3)ccc2Nc2cncnc2)c1C(=O)N(C)C` [Example 6, 6-Cyclopropyl-3-(pyrimidin-5-ylamino)-pyridine-2-carboxylic acid [5-dimethylcarbamoyl-1-(2-methoxy-ethyl)-1H-pyrazol-4-yl]-amide], the concentration for half-maximal inhibition (IC50) was found to be 12.6 nM. On to `CNC(=O)c1c(NC(=O)c2nc(OCC(F)(F)F)ncc2Nc2cncnc2)cnn1C` [Example 337, 5-(Pyrimidin-5-ylamino)-2-(2,2,2-trifluoro-ethoxy)-pyrimidine-4-carboxylic acid (1-methyl-5-methylcarbamoyl-1H-pyrazol-4-yl)-amide], for which the IC50 amounted to 126 nM. Turning to `O=C(NCCO)c1ncccc1NC(=O)c1nc(C2CC2)cnc1Nc1cncnc1` [Example 271, 6-Cyclopropyl-3-(pyrimidin-5-ylamino)-pyrazine-2-carboxylic acid [2-(2-hydroxy-ethylcarbamoyl)-pyridin-3-yl]-amide], the IC50 worked out at 0.4 nM. `O=C(NC1CC1)c1ccsc1NC(=O)c1nc(C2CC2)ccc1Nc1cncnc1` [Example 89, 6-Cyclopropyl-3-(pyrimidin-5-ylamino)-pyridine-2-carboxylic acid (3-cyclopropylcarbamoyl-thiophen-2-yl)-amide]: the 50% inhibitory concentration (IC50) is 0.5 nM. Consider `CNC(=O)c1c(NC(=O)c2nc(C3CC3)ccc2Nc2cncnc2)cnn1CCC(F)(F)F` [Example 10, 6-Cyclopropyl-3-(pyrimidin-5-ylamino)-pyridine-2-carboxylic acid [5-methylcarbamoyl-1-(3,3,3-trifluoro-propyl)-1H-pyrazol-4-yl]-amide], for which the IC50 turned out to be 202 nM. The value for `CN(CCO)C(=O)c1c(NC(=O)c2nc(C3CC3)cnc2Nc2cncnc2)cnn1C` [Example 226, 6-Cyclopropyl-3-(pyrimidin-5-ylamino)-pyrazine-2-carboxylic acid [5-[(2-hydroxy-ethyl)-methyl-carbamoyl]-1-methyl-1H-pyrazol-4-yl]-amide] was 54.3 nM; that for `Cn1ncc(NC(=O)c2nc(C3CC3)cnc2Nc2cccnc2)c1C(=O)N1CCC1` [Example 234, 6-Cyclopropyl-3-(pyridin-3-ylamino)-pyrazine-2-carboxylic acid [5-(azetidine-1-carbonyl)-1-methyl-1H-pyrazol-4-yl]-amide] was 77.3 nM.

Regarding `Cn1ncc(NC(=O)c2nc(C3CC3)cnc2Nc2cncnc2)c1C(=O)NCC(C)(F)F` [Example 165, 6-Cyclopropyl-3-(pyrimidin-5-ylamino)-pyrazine-2-carboxylic acid [5-(2,2-difluoro-propylcarbamoyl)-1-methyl-1H-pyrazol-4-yl]-amide], the IC50 is 2.2 nM. As to `COC1CCN(C(=O)c2nn(C)cc2NC(=O)c2nc(C3CC3)ccc2Nc2cncnc2)C1` (centres unmarked) [Example 48, 6-Cyclopropyl-3-(pyrimidin-5-ylamino)-pyridine-2-carboxylic acid [3-(3-methoxy-pyrrolidine-1-carbonyl)-1-methyl-1H-pyrazol-4-yl]-amide], the IC50 was found to be 8.3 nM. As for `CN(C)C(=O)c1nn(-c2ccccn2)cc1NC(=O)c1nc(C2CC2)ccc1Nc1cncnc1` [Example 74, 6-Cyclopropyl-3-(pyrimidin-5-ylamino)-pyridine-2-carboxylic acid (3-dimethylcarbamoyl-1-pyridin-2-yl-1H-pyrazol-4-yl)-amide], the half-maximal inhibitory concentration (IC50) is 7.3 nM. As to `Cn1ncc(NC(=O)c2nc(C3CC3)cnc2Nc2cncnc2)c1C(=O)NCC(O)C(F)(F)F` (centres unmarked) [Example 146, 6-Cyclopropyl-3-(pyrimidin-5-ylamino)-pyrazine-2-carboxylic acid [1-methyl-5-(3,3,3-trifluoro-2-hydroxy-propylcarbamoyl)-1H-pyrazol-4-yl]-amide], the IC50 was 1.7 nM. For the molecule `CN(CC(O)CO)C(=O)c1nn(C)cc1NC(=O)c1nc(C2CC2)ccc1Nc1cncnc1` (centres unmarked) [Example 46, 6-Cyclopropyl-3-(pyrimidin-5-ylamino)-pyridine-2-carboxylic acid {3-[(2,3-dihydroxy-propyl)-methyl-carbamoyl]-1-methyl-1H-pyrazol-4-yl}-amide], the half-inhibitory concentration (IC50) stood at 19.3 nM. Turning to `CNC(=O)c1nc(C2CCCO2)ccc1NC(=O)c1nc(C2CC2)cnc1Nc1cncnc1` (centres unmarked) [Example 177, 6-Cyclopropyl-3-(pyrimidin-5-ylamino)-pyrazine-2-carboxylic acid [2-methylcarbamoyl-6-(tetrahydro-furan-2-yl)-pyridin-3-yl]-amide], the IC50 amounted to 0.2 nM. The figure for `CNC(=O)c1c(NC(=O)c2nc(C(C)C)cnc2Nc2cncnc2)cnn1C` [Example 131, 6-Isopropyl-3-(pyrimidin-5-ylamino)-pyrazine-2-carboxylic acid (1-methyl-5-methylcarbamoyl-1H-pyrazol-4-yl)-amide] is 1.4 nM. The value for `CC1CCC(C)N1C(=O)c1nn(C)cc1NC(=O)c1nc(C2CC2)ccc1Nc1cncnc1` (centres unmarked) [Example 35, 6-Cyclopropyl-3-(pyrimidin-5-ylamino)-pyridine-2-carboxylic acid [3-(2,5-dimethyl-pyrrolidine-1-carbonyl)-1-methyl-1H-pyrazol-4-yl]-amide] was 45.7 nM; that for `O=C(NC1CC1)c1nocc1NC(=O)c1nc(C2CC2)cnc1Nc1cncnc1` [Example 163, 6-Cyclopropyl-3-(pyrimidin-5-ylamino)-pyrazine-2-carboxylic acid (3-cyclopropylcarbamoyl-isoxazol-4-yl)-amide] was 6.2 nM. For the molecule `CNC(=O)c1cccc(F)c1NC(=O)c1nc(C2CC2)cnc1Nc1cncnc1` [Example 290, 6-Cyclopropyl-3-(pyrimidin-5-ylamino)-pyrazine-2-carboxylic acid (2-fluoro-6-methylcarbamoyl-phenyl)-amide], the IC50 was 2.8 nM. With `CON(C)C(=O)c1c(NC(=O)c2nc(C3CC3)cnc2Nc2cncnc2)cnn1C` [Example 334, 6-Cyclopropyl-3-(pyrimidin-5-ylamino)-pyrazine-2-carboxylic acid [5-(methoxy-methyl-carbamoyl)-1-methyl-1H-pyrazol-4-yl]-amide], the IC50 is 2.2 nM.

Regarding `CC1(C)CCN(C(=O)c2ccncc2NC(=O)c2nc(C3CC3)ccc2Nc2cncnc2)C1` [Example 63, 6-Cyclopropyl-3-(pyrimidin-5-ylamino)-pyridine-2-carboxylic acid [4-(3,3-dimethyl-pyrrolidine-1-carbonyl)-pyridin-3-yl]-amide], the IC50 amounted to 87 nM. Regarding `CNC(=O)c1c(NC(=O)c2nc(N3CCOCC3)cnc2Nc2cncnc2)cnn1C` [Example 297, 6-Morpholin-4-yl-3-(pyrimidin-5-ylamino)-pyrazine-2-carboxylic acid (1-methyl-5-methylcarbamoyl-1H-pyrazol-4-yl)-amide], the IC50 came to 4.1 nM. For `O=C(NC1CCOC1)c1ccncc1NC(=O)c1nc(C2CC2)cnc1Nc1cncnc1` (centres unmarked) [Example 100, 6-Cyclopropyl-3-(pyrimidin-5-ylamino)-pyrazine-2-carboxylic acid [4-(tetrahydro-furan-3-ylcarbamoyl)-pyridin-3-yl]-amide], the IC50 is 2.5 nM. On to `CCNC(=O)c1c(NC(=O)c2nc(C3CC3)cnc2Nc2cncnc2)cnn1C` [Example 197, 6-Cyclopropyl-3-(pyrimidin-5-ylamino)-pyrazine-2-carboxylic acid (5-ethylcarbamoyl-1-methyl-1H-pyrazol-4-yl)-amide], for which the IC50 amounted to 3.9 nM.

For the molecule `Cn1ncc(NC(=O)c2nc(C3CC3)cnc2Nc2cncnc2)c1C(=O)N1CCOCC1` [Example 179, 6-Cyclopropyl-3-(pyrimidin-5-ylamino)-pyrazine-2-carboxylic acid [1-methyl-5-(morpholine-4-carbonyl)-1H-pyrazol-4-yl]-amide], the concentration for half-maximal inhibition (IC50) is 148 nM. `CNC(=O)c1nn(C)cc1NC(=O)c1nc(C2CC2)ccc1Nc1cncnc1` [Example 2, 6-Cyclopropyl-3-(pyrimidin-5-ylamino)-pyridine-2-carboxylic acid (1-methyl-3-methylcarbamoyl-1H-pyrazol-4-yl)-amide]: the concentration for half-maximal inhibition (IC50) turned out to be 4.6 nM. In the case of `CN(C)C1CCN(C(=O)c2ccncc2NC(=O)c2nc(C3CC3)ccc2Nc2cncnc2)C1` (centres unmarked) [Example 53, 6-Cyclopropyl-3-(pyrimidin-5-ylamino)-pyridine-2-carboxylic acid [4-(3-dimethylamino-pyrrolidine-1-carbonyl)-pyridin-3-yl]-amide], the 50% inhibitory concentration (IC50) stood at 73.7 nM. Turning to `CC(C)OCCNC(=O)c1ccncc1NC(=O)c1nc(C2CC2)cnc1Nc1cncnc1` [Example 99, 6-Cyclopropyl-3-(pyrimidin-5-ylamino)-pyrazine-2-carboxylic acid [4-(2-isopropoxy-ethylcarbamoyl)-pyridin-3-yl]-amide], the half-maximal inhibitory concentration (IC50) came to 2.6 nM.
